Reference: patent publication US20260191836A1, “SOLID PREPARATION CONTAINING OXIDIZED CLOPIDOGREL AND PREPARATION METHOD THEREFOR” (CHENGDU SHIBEIKANG BIOMEDICAL TECHNOLOGY CO., LTD., priority 2022, published 2026)
“Also recorded” adds a separate entry of the source.

Assay: Properties of the drug substance (solubility, BCS class, stability)
Assay type: physicochemical

- BCS biopharmaceutical classification: low-solubility and high-permeability
- solubility in acetonitrile (acetonitrile): soluble
- solubility in methanol (methanol): slightly soluble
- solubility in water (water): almost insoluble
SMILES: COC(=O)[C@H](c1ccccc1Cl)N1CC[C@@H]2SC(=O)C=C2C1 [(7aS, 2′S)-2-oxo-clopidogrel, methyl (S)-2-(2-chlorophenyl)-2-((S)-2-oxo-2,6,7,7a-tetrahydrothieno[3,2-c]pyridin-5 (4H)-yl)acetate]
- stability of the drug substance (in words): extremely prone to oxidative degradation; also recorded: instability under high temperature, acid and alkali conditions
